Data: paper PMC11943725, “Construction of a Plasmid-Free Escherichia coli Strain with Enhanced Heme Supply to Produce Active Hemoglobins” (Metabolites, 2025)

Biological target: T1, human hemoglobin (hHb) (Homo sapiens, UniProt P68871+P69905)
T1 construct: gene HBA1; tetramer
Assay: peroxidase activity of purified protein with TMB Chromogen Solution, OD370
Assay type: biochemical
Conditions: chromogenic peroxidase substrate; holo fraction incomplete

T1 sequence (P69905 2-142): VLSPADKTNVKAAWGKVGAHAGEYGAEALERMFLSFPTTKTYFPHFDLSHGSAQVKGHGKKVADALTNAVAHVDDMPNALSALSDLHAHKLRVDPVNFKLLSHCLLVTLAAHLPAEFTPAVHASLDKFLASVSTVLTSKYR
T1 sequence (P68871 2-147): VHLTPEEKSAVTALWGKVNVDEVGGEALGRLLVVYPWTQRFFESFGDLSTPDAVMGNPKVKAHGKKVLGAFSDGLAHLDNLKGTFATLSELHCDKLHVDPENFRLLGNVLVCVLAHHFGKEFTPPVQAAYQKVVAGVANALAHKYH

Cc1cc(-c2cc(C)c(N)c(C)c2)cc(C)c1N [TMB]
peroxidase activity of purified protein with TMB Chromogen Solution, OD370: The peroxidase activities of purified proteins were detected using TMB Chromogen Solution
